{
  "source": "patent US20080227854A1",
  "about": "“Compound 3-(1, 1-Dimethyl-Allyl)-6-Hydroxy-Chromen-2-One and its Pharmaceutically Acceptable Salts Thereof” (COUNCIL OF SCIENTIFIC & INDUSTRIAL RESEARCH, priority 2007, published 2008)",
  "key": {"[1]": {"tested_on": "nitric oxide production in murine macrophage cells (J774)", "test": "Nitric oxide assay using Griess nitrite assay in LPS-challenged macrophages", "assay_type": "cell-based", "protocol": "Murine macrophage cell line (J-774) was used to check the anti-inflammatory effects of the extract, sub-fractions and the isolated active compounds. The macrophages are cultured in Dulbeccos Modified Eagles Medium (DMEM) supplemented with antibiotic and antimycotic solution and 10% fetal calf serum at 37° C. in a CO2 incubator (5%). The cell viability was measured using the Trypan blue exclusion method. For inducing the inflammatory conditions the cell were stimulated with LPS (1 μg/ml) and the effect of the compounds on the inflammatory condition was assessed by measuring the inflammatory mediator, nitric oxide and the respective inos gene expression by the murine macrophages.\nThe murine macrophage cells release nitric oxide along with other pro-inflammatory molecules, when stimulated with LPS. The cells were preincubated with the crude extract (300 and 500 μg/ml), ethyl ether fraction (50, 100, 150 μg/ml), the isolated active compound (5, 10, 20 μg/ml) and rutin (20, 40, 80 μM) for 2 hours and then challenged with LPS (1 μg/ml) for 16 hours. After 16 hours the cell supernatant was used to measure the nitric oxide production as nitrite using Griess nitrite assay (Lee et al., 2003, Life Science 73, 1401-1412). Equal amount of cell supernatant was incubated with Griess reagent for 10 minutes at room temperature and the magenta color developed was measured using spectrophotometer.\nEach of the four fractions obtained in Example III were then used in different concentrations (50 μg/ml, 100 µg/ml and 150 μg/ml) for their effect on nitric oxide inhibition in vitro. Murine macrophages (J774) were maintained in DMEM medium, 37° C. in CO2 incubator (5% CO2). The cells were harvested and challenged with LPS (Sigma) at a concentration of 1 μg/ml with and without the four test fractions obtained in Example III for 16 hours at 37° C. in the humidified incubator with 5% CO2. After 16 hours the cell free supernatant was collected and the nitric oxide production was measured as described by Lee et al. Briefly 100 μl of supernatant samples were incubated for 10 min at room temperature with an equal volume of Griess reagent (0.1% naphthalene diamine dihydrochloride, 1% sulfanilamide in 5% H2SO4) in microtitre plate. The absorbance at 550 nm was measured. Sodium nitrite was used as the standard."}, "[2]": {"tested_on": "murine macrophage cells (J774)", "test": "Cytotoxicity assay using MTT", "assay_type": "cell-based", "details": "for Cell viability (%): J774, MTT", "protocol": "The murine macrophage cells were plated in cell culture plates and then treated with or without the crude extract/ethyl ether fraction/purified compound. The cells were then washed and challenged with LPS (1 μg/ml) for 16 hours. The MTT (5 mg/ml in PBS) was then added and the cells were further incubated for 4 hours at 37° C. in CO2 incubator. MTT solubilization buffer was then added and absorbance at 590 nm was determined."}, "inos gene": {"tested_on": "inos gene", "test": "RT-PCR analysis for inos gene expression", "assay_type": "cell-based, murine", "protocol": "The murine macrophage cells were preincubated with the test extract, ethyl ether fraction and the compound for 2 hours (as mentioned above), washed and then challenged with LPS for 4 hours. After the incubation period the cells were washed with phosphate buffered saline (PBS), scraped and then pelleted by centrifugation. The total RNA from the pelleted cells was isolated using EZ-RNA isolation kit (Biological industries) using vendor recommended protocol. Then, cDNA was prepared from the total RNA using single strand cDNA synthesis kit (Clontech, USA) and the expression of inos gene was estimated using gene specific primers for inos gene.\nThe murine macrophage cells (J774) were challenged with LPS at a concentration of 1 μg/ml with and without the four test fractions obtained in Example III for 4 hours at 37° C. in the humidified incubator with 5% CO2. The cells were harvested and were used to isolate the total RNA using (RNA isolation kit, Qiagen). The RNA was quantified spectrophotometrically and 2 μg of total RNA from each sample was used for cDNA synthesis (cDNA synthesis kit, Clontech). Gene specific PCR for the inducible nitric oxide synthase (inos) and glyceraldehyde-3-phosphatedehyrogenase (G3PDH) as house keeping gene was performed. Primer sequences were designed from cDNA sequences of the specific gene (www:ncbi.nlm.nih.gov/locuslink) using DNASTAR software. […]"}, "Balb/c mice": {"tested_on": "Balb/c mice", "test": "LPS induced endotoxemia in Balb/c mice, total nitrite in plasma", "assay_type": "in vivo", "protocol": "The HPLC purified lead compound was suspended in phosphate buffered saline (PBS) at a concentration of 20 mg/ml for in vivo experiment. Balb/c mice, 6 to 8 week of age, weighing 23-25 g, were housed in micro-barrier cages on sterile bedding and fed ad libitum water and food. The animals were divided into three groups containing 6 mice in each group. Four milligrams (160 mg/kg body weight) of the isolated lead compound was administered intra-peritoneally (i.p.) 2 hours prior to LPS challenge. After 2 hours 150 μg LPS was injected i.p., and the mice were kept for 8 hours. In negative control mice, PBS was injected whereas, only LPS injected mice were used as positive control. After 8 hours of LPS injection, the blood was collected in ACD buffer from each mouse by retro-orbital puncture. The blood samples were immediately centrifuged and the plasma samples were collected and stored at −20° C. till nitrite assay. The plasma samples were then diluted 1:1 using 1× reaction buffer (total nitrite estimation kit, R & D systems, USA) and protein from the plasma was removed using 10 kDa centricon (Centricon, USA). Then protein free plasma samples were used for total nitrite estimation (NO^2−+NO^3−) using the same kit.\nThe Balb/c mice were used to validate the in vivo effect of the active compound on endotoxin induced inflammation by LPS. Balb/c mice, 6 to 8 week of age, weighing 23-25 g, were housed in micro-barrier cages on sterile bedding and fed ad libitum water and food. The animals were divided into three groups containing 6 mice in each group. Four milligrams (160 mg/kg body weight) of the active compound was preinjected intra-peritonially (i.p.) into the mice for two hours and then LPS (150 μg) was injected i.p. and left for eight hours. […] The plasma from the blood samples were collected by centrifuging at […] for 10 minutes and stored at −80° C. till nitric oxide was analyzed using Griess nitrite assay. The total nitrite in the plasma samples were detected using nitric oxide (NO^2−/NO^3−) assay kit (R & D systems, USA). […]"}},
  "data": [
    {"smiles": "C=CC(C)(C)c1cc2cc(O)ccc2oc1=O", "note": "[Rg-001, 3-(1,1-dimethyl-allyl)-6-hydroxy-chromen-2-one]", "values": [
      {"measurement": "Nitric oxide inhibition (%)", "setting": "[1]; 5 μg (21.74 μM), J774, LPS 1 μg/ml 16 h, 21.74 µM", "value": 25.4, "unit": "%"},
      {"measurement": "Nitric oxide inhibition (%)", "setting": "[1]; 20 μg (87 μM), J774, LPS 1 μg/ml 16 h, 87 µM", "value": 63.5, "unit": "%"},
      {"measurement": "inhibition of nitric oxide production", "setting": "[1]; 5, 10 and 20 μg/ml, J774, LPS", "value": "significant inhibition"},
      {"measurement": "inhibition at 21.74 µM", "setting": "[1]; Mus musculus, J774, 16 h, 5 μg (21.74 μM), J774, LPS 1 μg/ml 16 h", "value": 25, "unit": "%"},
      {"measurement": "inhibition at 43.5 µM", "setting": "[1]; Mus musculus, J774, 16 h, 10 μg (43.5 μM), J774, LPS 1 μg/ml 16 h", "value": 40, "unit": "%"},
      {"measurement": "inhibition at 87 µM", "setting": "[1]; Mus musculus, J774, 16 h, 20 μg (87 μM), J774, LPS 1 μg/ml 16 h", "value": 70, "unit": "%"},
      {"measurement": "Cell viability (%)", "setting": "[2]; 5 μg (21.74 μM)", "value": ">85", "unit": "%"},
      {"measurement": "Cell viability (%)", "setting": "[2]; 10 μg (43.5 μM)", "value": ">85", "unit": "%"},
      {"measurement": "Cell viability (%)", "setting": "[2]; 20 μg (87 μM)", "value": ">85", "unit": "%"},
      {"measurement": "Cell viability (%)", "setting": "[2]; 20 μg (87 μM), listed as 3-(1,1-dimethyl-allyl)-6-hydroxy-chromen-2-one", "value": "> 85", "unit": "%"},
      {"measurement": "cell viability", "setting": "[2]; all the doses ranging from 20 to 100 μg/ml", "value": "> 85", "unit": "%"},
      {"measurement": "viability of macrophage cells", "setting": "[2]; highest concentration 50 μg i.e. 217.5 μM, MTT", "value": "> 85", "unit": "%"},
      {"measurement": "inhibition of inos gene", "setting": "inos gene", "value": 70, "unit": "%"},
      {"measurement": "effect on inos gene expression", "setting": "inos gene; J774, LPS challenge", "value": "inhibit the gene expression significantly"},
      {"measurement": "inhibition of total nitrite in the plasma samples", "setting": "Balb/c mice; 160 mg/kg body weight i.p. 2 hours prior to LPS (150 μg), blood after 8 hours", "value": "> 75", "unit": "%"},
      {"measurement": "behavioral condition of treated mice", "setting": "Balb/c mice; 160 mg/kg i.p., 8 hours after LPS, compared to the LPS challenged mice", "value": "normal behavioral condition"},
      {"measurement": "in-vivo inflammation (NO inhibition)", "setting": "Balb/c mice; effective dose of 40 mg/kg to 160 mg/kg body weight", "value": "60% to 80"}
    ]},
    {"smiles": "C[C@@H]1O[C@@H](OC[C@H]2O[C@@H](Oc3c(-c4ccc(O)c(O)c4)oc4cc(O)cc(O)c4c3=O)[C@H](O)[C@@H](O)[C@@H]2O)[C@H](O)[C@H](O)[C@H]1O", "note": "[Rutin, reference compound]", "values": [
      {"measurement": "inhibition at 20 µM", "setting": "[1]; Mus musculus, J774, 16 h, 12.2 μg (20 μM), J774, LPS 1 μg/ml 16 h", "value": 11, "unit": "%"},
      {"measurement": "inhibition at 40 µM", "setting": "[1]; Mus musculus, J774, 16 h, 24.4 μg (40 μM), J774, LPS 1 μg/ml 16 h", "value": 20.6, "unit": "%"},
      {"measurement": "inhibition at 80 µM", "setting": "[1]; Mus musculus, J774, 16 h, 48.8 μg (80 μM), J774, LPS 1 μg/ml 16 h", "value": 27, "unit": "%"},
      {"measurement": "Cell viability (%)", "setting": "[2]; 12.2 μg (20 μM)", "value": ">85", "unit": "%"},
      {"measurement": "Cell viability (%)", "setting": "[2]; 24.4 μg (40 μM)", "value": ">85", "unit": "%"},
      {"measurement": "Cell viability (%)", "setting": "[2]; 48.8 μg (80 μM)", "value": "≦75%"}
    ]}
  ]
}
